Test results published in patent US9505752B2, “Piperidine amide derivatives as HIV attachment inhibitors” (priority 2012, dated 2016).
Read-outs that look alike come from different tables or passages of the source.

Test system: HIV-1 LAI envelope single-round infectious reporter virus
Assay: Single-round infectious luciferase reporter virus (HIV-1 LAI envelope) infection of MT2 cells
Type: cell-based
Conditions: Human immunodeficiency virus 1, MT2, 72 h
From the text: • Virus production—Human embryonic Kidney cell line, 293T (HEK 293T), was propagated in Dulbecco's Modified Eagle Medium (Invitrogen, Carlsbad, Calif.) containing 10% fetal bovine serum (FBS, Sigma, St. Louis, Mo.). The human T-cell leukemia cell MT2 (AIDS Research and Reference Reagent Program, Cat. 237) was propagated in RPMI 1640 (Invitrogen, Carlsbad, Calif.) containing 10% fetal bovine serum (FBS, Hyclone, Logan, Utah) • Virus infection—Single-round infectious reporter virus was produced by co-transfecting HEK 293T cells with plasmide expressing the HIV-1 LAI envelope along with a plasmid containing an HIV-1 LAI proviral cDNA with the envelope gene replaced by a firefly luciferase reporter gene (Chen et al., Ref 41). Transfections were performed using lipofectAMINE PLUS reagent as described by the manufacturer (Invitrogen, Carlsbad, Calif.). Experimental Procedure • 1. MT2 cells were plated in black, 384 well plates at a cell density of 5×10^3 cells per well in 25 μl RPMI 1640 containing 10% FBS. • 2. Compound (diluted in dimethylsulfoxide and growth medium) was added to cells at 12.5 μl/well, so that the final assay concentration would be ≦50 nM. • 3. 12.5 μl of single-round infectious reporter virus in Dulbecco's Modified Eagle Medium was added to the plated cells and compound at an approximate multiplicity of infection (MOI) of 0.01, resulting in a final volume of 50 μl per well. • 4. Virus-infected cells were incubated at 37 degrees Celsius in a CO2 incubator and harvested 72 h after infection. • 5. Viral infection was monitored by measuring luciferase expression in the infected cells using a luciferase reporter gene assay kit (Steady-Glo, Promega, Madison, Wis.) as described by the manufacturer. Luciferase activity was then quantified by measuring luminescence using an EnVision Multilabel Plate Readers (PerkinElmer, Waltham, Mass.). • 6. The percent inhibition for each compound was calculated by quantifying the level of luciferase expression in cells infected in the presence of each compound as a percentage of that observed for cells infected in the absence of compound and subtracting such a determined value from 100. • 7. An EC50 provides a method for comparing the antiviral potency of the compounds of this invention. The effective concentration for fifty percent inhibition (EC50) was calculated with the Microsoft Excel Xlfit curve fitting software. For each compound, curves were generated from percent inhibition calculated at 10 different concentrations by using a four parameter logistic model (model 205). Table 1 is the key for the data in Table 2.

[1] = read-out: EC50 Group from Table 1

SMILES | EC50 | EC50 [1]
O=C(C(=O)N1CCC(C(=O)c2ccccc2)CC1)c1c[nH]c2ccccc12 [Compound 1001] | 3490 nM | > 500 nM
CC(C)=C(c1ccccc1)C1CCN(C(=O)C(=O)c2c[nH]c3ccccc23)CC1 [Compound 1002] |  | > 500 nM
C/C=C(\c1ccccc1)C1CCN(C(=O)C(=O)c2c[nH]c3ccccc23)CC1 [Compound 1003] |  | > 500 nM
C=C(c1ccccc1)C1CCN(C(=O)C(=O)c2c[nH]c3ccccc23)CC1 [Compound 1004] |  | > 500 nM
COc1cnc(-n2ccnn2)c2[nH]cc(C(=O)C(=O)N3CCC4(CC3)CC4(c3ccccc3)c3nnc(C)o3)c12 (centres unmarked) [Compound 1005] | 0.75 nM | < 500 nM
O=C(C(=O)N1CCC(Cc2ccccc2)CC1)c1c[nH]c2c(-n3ccnn3)ncc(F)c12 [Compound 1006] |  | < 500 nM
O=C(C(=O)N1CCC(C(O)(c2ccccc2)c2ccccc2)CC1)c1c[nH]c2c(-n3ccnn3)ncc(F)c12 [Compound 1007] |  | < 500 nM
N#CC(c1ccccc1)C1CCN(C(=O)C(=O)c2c[nH]c3c(-n4ccnn4)ncc(F)c23)CC1 (centres unmarked) [Compound 1008] | 0.2 nM | < 500 nM
COc1cnc(-n2cnc(C)n2)c2[nH]cc(C(=O)C(=O)N3CCC(C(C#N)c4ccccc4)CC3)c12 (centres unmarked) [Compound 1009] |  | < 500 nM
COc1ncc(OC)c2c(C(=O)C(=O)N3CCC4(CC3)CC4(C#N)c3ccccc3)c[nH]c12 (centres unmarked) [Compound 2001, 6-(2-(4,7-dimethoxy-1H-pyrrolo[2,3-c]pyridin-3-yl)-2-oxoacetyl)-1-phenyl-6-azaspiro[2.5]octane-1-carbonitrile] |  | < 500 nM
N#CC1(c2ccccc2)CC12CCN(C(=O)C(=O)c1c[nH]c3c(-n4ccnn4)ncc(F)c13)CC2 (centres unmarked) [Compound 2002, 6-(2-(4-fluoro-7-(1H-1,2,3-triazol-1-yl)-1H-pyrrolo[2,3-c]pyridin-3-yl)-2-oxoacetyl)-1-phenyl-6-azaspiro[2.5]octane-1-carbonitrile] |  | < 500 nM
COc1cnc(-n2cnc(C)n2)c2[nH]cc(C(=O)C(=O)N3CCC4(CC3)CC4(C#N)c3ccccc3)c12 (centres unmarked) [Compound 2003, 6-(2-(4-methoxy-7-(3-methyl-1H-1,2,4-triazol-1-yl)-1H-pyrrolo[2,3-c]pyridin-3-yl)-2-oxoacetyl)-1-phenyl-6-azaspiro[2.5]octane-1-carbonitrile] | 2.52 nM | < 500 nM
Cn1ccnc1C(O)(c1ccccc1)C1CCN(C(=O)C(=O)c2c[nH]c3c(-n4ccnn4)ncc(F)c23)CC1 (centres unmarked) [Compound 2004, 1-(4-fluoro-7-(1H-1,2,3-triazol-1-yl)-1H-pyrrolo[2,3-c]pyridin-3-yl)-2-(4-(hydroxy(1-methyl-1H-imidazol-2-yl)(phenyl)methyl)piperidin-1-yl)ethane-1,2-dione] |  | < 500 nM
COc1cnc(-n2cnc(C)n2)c2[nH]cc(C(=O)C(=O)N3CCC(C(O)(c4ccccc4)c4nccn4C)CC3)c12 (centres unmarked) [Compound 2005, 1-(4-(hydroxy(1-methyl-1H-imidazol-2-yl)(phenyl)methyl)piperidin-1-yl)-2-(4-methoxy-7-(3-methyl-1H-1,2,4-triazol-1-yl)-1H-pyrrolo[2,3-c]pyridin-3-yl)ethane-1,2-dione] |  | < 500 nM
Cn1ccnc1C(c1ccccc1)C1CCN(C(=O)C(=O)c2c[nH]c3c(-n4ccnn4)ncc(F)c23)CC1 (centres unmarked) [Compound 2006, 1-(4-fluoro-7-(1H-1,2,3-triazol-1-yl)-1H-pyrrolo[2,3-c]pyridin-3-yl)-2-(4-((1-methyl-1H-imidazol-2-yl)(phenyl)methyl)piperidin-1-yl)ethane-1,2-dione] |  | < 500 nM
COc1cnc(-n2cnc(C)n2)c2[nH]cc(C(=O)C(=O)N3CCC(C(c4ccccc4)c4nccn4C)CC3)c12 (centres unmarked) [Compound 2007, 1-(4-methoxy-7-(3-methyl-1H-1,2,4-triazol-1-yl)-1H-pyrrolo[2,3-c]pyridin-3-yl)-2-(4-((1-methyl-1H-imidazol-2-yl)(phenyl)methyl)piperidin-1-yl)ethane-1,2-dione] |  | < 500 nM
